Source: ChEMBL document CHEMBL4402592, “Targeting Endoplasmic Reticulum α-Glucosidase I with a Single-Dose Iminosugar Treatment Protects against Lethal Influenza and Dengue Virus Infections” (J Med Chem, 2020)
Calls of active or inactive are those of the source. No cut-off for these calls is given here.

How the values were obtained:
Influenza A virus [1] = assay: Antiviral activity against Influenza A virus (A/Texas/36/1991(H1N1)) infected in BALB/c mouse assessed as median death time at 500 mg/kg, po administered via gavage as single dose at 16 hrs post infection (reference value: 8.5 days); type: functional
dengue virus type 2 [2] = assay: Antiviral activity against Dengue virus 2 S221 infected in DENV antibody dependent enhancement AG129 mouse model assessed as reduction in KC-GRO level at 750 mg/kg, po administered via gavage as single dose at 36 hrs post infection measured at 60 hrs post-infection by electrochemiluminescence based method; type: functional, organism-based
dengue virus type 2 [3] = assay: Antiviral activity against Dengue virus 2 S221 infected in DENV antibody dependent enhancement AG129 mouse model assessed as reduction in viremia at 750 mg/kg, po administered via gavage as two doses at 36 hrs and 52 hrs post infection by qRT-PCR analysis; type: functional, organism-based
Influenza A virus [4] = assay: Antiviral activity against Influenza A virus (A/Texas/36/1991(H1N1)) infected in BALB/c mouse assessed as median death time at 750 mg/kg, po administered via gavage as single dose at 16 hrs post infection (reference value: 8.5 days); type: functional

Which results are given for `COCCCCCCCCCN1C[C@H](O)[C@@H](O)[C@H](O)[C@H]1CO.Cl`?
Time (Influenza A virus [1]): 12 days; Activity (dengue virus type 2 [2]): Active; Activity (dengue virus type 2 [3]): Active; Time (Influenza A virus [4]): >14 days
